Reference: article PMC3740496, “Synthesis and biological activities of the respiratory chain inhibitor aurachin D and new ring versus chain analogues” (Beilstein Journal of Organic Chemistry, 2013)
Values after ≈ are worked out from the molar mass of the structure shown.

Columns and labels:
Type in all cases: cell-based
[1] = tested on: K562 myelogenous leukemia cells; experiment: Cytotoxicity, growth inhibition (MTT); details: Homo sapiens, K562, 120 h; 5 days treatment; triplicate, mean ±SD; read-out: IC50: half inhibitory concentration, K562
Experimental: The cytotoxic activity of aurachin D (4) and analogues 9–11 and 17–19 was evaluated in growth inhibition experiments on mammalian cell lines (Table 2). After 5 days treatment, half inhibitory concentrations (IC50) were determined for human HCT-116 colon carcinoma and human K562 myelogenous leukemia cells. […]
was further incubated for 1.5 h. The medium was then discarded and 100 µL 2-propanol/10 N HCl (250:1) was added in order to dissolve formazan granules. The absorbance at 570 nm was measured using a microplate reader (EL808, Bio-Tek Instruments Inc.) and cell viability was expressed as a percentage relative to the respective solvent control. […]

[2] = tested on: Plasmodium falciparum FcB1 (chloroquine-resistant); experiment: In vitro antiplasmodial assay ([3H]-hypoxanthine incorporation); details: for IC50: Plasmodium falciparum, FCB1, triplicate (except compound 24), mean ±SD, read-out: IC50 P. falciparum FcB1; for antiplasmodial selectivity index: Vero cytotoxic concentration / concentration active on P. falciparum FcB1
Experimental: In vitro antiplasmodial assays: The chloroquine-resistant strain FcB1/Colombia of Plasmodium falciparum was maintained in vitro on human erythrocytes in RPMI 1640 medium supplemented by 8% (v/v) heat-inactivated human serum, at 37 °C, under an atmosphere of 3% CO2, 6% O2, and 91% N2. In vitro drug susceptibility assays was measured by [3H]-hypoxanthine incorporation as described. Drugs were prepared in DMSO at a 10 mg/mL concentration. Compounds were serially diluted two-fold with 100 µL culture medium in 96-well plates. Asynchronous parasite cultures (100 µL, 1% parasitaemia and 1% final hematocrite) were then added to each well and incubated for 24 h at 37 °C prior to the addition of 0.5 µCi of [3H]- hypoxanthine (GE Healthcare, France, 1 to 5 Ci·mmol/mL) per well. After a further incubation of 24 h, plates were frozen and thawed. Cell lysates were then collected onto glass-fiber filters and counted in a liquid scintillation spectrometer. The growth inhibition for each drug concentration was determined by comparison of the radioactivity incorporated in the treated culture with that in the control culture maintained on the same plate. The concentration causing 50% growth inhibition (IC50) was obtained from the drug concentration–response curve and the results were expressed as the mean values ± standard deviations determined from several […]
independent experiments. Chloroquine diphosphate (Sigma–Aldrich) was used as antimalarial drug control. […]

Bacillus subtilis DSM10 = experiment: MIC determination; details: duplicate, mean ±SD; for MIC50: Bacillus subtilis, DSM10
Experimental: (§1) MIC determination: Indicator strains were obtained from the German Collection of Microorganisms and Cell Cultures (Deutsche Sammlung für Mikroorganismen und Zellkulturen, DSMZ) or were part of our internal strain collection. All microorganisms were handled under standard conditions recommended by the depositor. Overnight […]
(§2) cultures of bacteria were prepared in EBS medium (0.5% casein peptone, 0.5% proteose peptone, 0.1% meat peptone, 0.1% yeast extract; pH 7.0). Yeasts and molds were grown in Myc medium (1% phytone peptone, 1% glucose, 50 mM
(§3) HEPES, pH 7.0). The overnight cultures of microorganisms were diluted to OD600 0.01 (bacteria) or 0.05 (yeasts/molds) in the respective growth medium. Serial dilutions of compounds were prepared as duplicates in sterile 96-well plates. The cell suspension was added and microorganisms were grown overnight on a microplate shaker (900 rpm, 30 °C or 37 °C). Growth inhibition was assessed by measuring the OD600 on a plate reader (POLARstar, BMG Labtech). MIC50 values were determined as averages relative to respective control samples by sigmoidal curve fitting. […]

Escherichia coli (TolC) = experiment: MIC determination; details: read-out: MIC50 Escherichia coli (TolC)
Experimental: as §1, §2, §3

[3] = tested on: Escherichia coli DH5α (wt); experiment: MIC determination; details: duplicate, mean ±SD
Experimental: as §1, §2, §3

[4] = tested on: Klebsiella pneumoniae DSM30104; experiment: MIC determination; details: duplicate, mean ±SD
Experimental: as §1, §2, §3

Micrococcus luteus = experiment: MIC determination; details: duplicate, mean ±SD
Experimental: as §1, §2, §3

[5] = tested on: Staphylococcus aureus DSM11822 (MRSA); experiment: MIC determination; details: duplicate, mean ±SD
Experimental: as §1, §2, §3

[6] = tested on: Staphylococcus aureus Newman (MSSA); experiment: MIC determination; details: duplicate, mean ±SD
Experimental: as §1, §2, §3

Row | SMILES | IC50 [1] [µg/mL] | IC50 [2] [µg/mL] | antiplasmodial selectivity index [2] | MIC50 (Bacillus subtilis DSM10) [µg/mL] | MIC50 (Escherichia coli (TolC)) [µg/mL] | MIC50 [3] [µg/mL] | MIC50 [4] [µg/mL] | MIC50 (Micrococcus luteus) [µg/mL] | MIC50 [5] [µg/mL] | MIC50 [6] [µg/mL] | MIC50 Bacillus subtilis DSM10 (Bacillus subtilis DSM10)
1 | CC(C)=CCC/C(C)=C/CC/C(C)=C/Cc1c(C)[nH]c2ccccc2c1=O [compound 4, aurachin D] | 0.65 ± 0.16 (≈ 1.79 µM) | 0.04 ± 0.02 (≈ 0.11 µM) | 345 | < 0.1 | 8.36 ± 1 (≈ 23 µM) | > 64 | > 64 | 1.47 ± 0.12 (≈ 4.04 µM) | 2.1 ± 0.19 (≈ 5.78 µM) | 5.46 ± 1.05 (≈ 15 µM) | 
2 | CC(C)=CCC/C(C)=C/Cc1c(C)[nH]c2ccccc2c1=O [compound 9] | 1.5 ± 0.31 (≈ 5.08 µM) | 0.07 ± 0.02 (≈ 0.237 µM) | 345 | < 0.1 | 1.41 ± 0.45 (≈ 4.77 µM) | > 64 | > 64 | 2.59 ± 0.34 (≈ 8.77 µM) | 4.5 ± 0.74 (≈ 15.2 µM) | 3.96 ± 0.49 (≈ 13.4 µM) | 
3 | CC(C)=CCCC(C)=CCCC(C)=CCc1c(C)[nH]c2ccc3ccccc3c2c1=O [compound 17] | ~10 (≈ 24.2 µM) | 0.51 ± 0.18 (≈ 1.23 µM) |  | > 64 | > 64 | > 64 | > 64 | > 64 | > 64 | > 64 | 
4 | COc1ccc2[nH]c(C)c(CC=C(C)CCC=C(C)CCC=C(C)C)c(=O)c2c1 [compound 18] | 1.15 ± 0.22 (≈ 2.92 µM) | 0.2 ± 0.04 (≈ 0.508 µM) |  | 6.75 ± 0.6 (≈ 17.2 µM) | > 64 | > 64 | > 64 | 49.2 ± 3.94 (≈ 125 µM) | > 64 | > 64 | significant growth inhibitory effect
5 | CC(C)=CCCC(C)=CCCC(C)=CCc1c(C)[nH]c2cc3c(cc2c1=O)OCO3 [compound 19] | > 10 | 0.42 ± 0.09 (≈ 1.03 µM) |  | 4.66 ± 0.5 (≈ 11.4 µM) | > 64 | > 64 | > 64 | > 64 | > 64 | 34.6 ± 5.13 (≈ 84.8 µM) | significant growth inhibitory effect
